Like-named read-outs stand apart in the source and are kept apart here.

For data set [1], the system named is HIV-1_89.6 particles produced from 293 T cells. Kind of data set: TEM analysis of HIV-1 particle morphology. The format is cell-based. The conditions noted are these: viruses produced from treated 293T cells; 1 μM. The procedure:
293T cells were transfected with plasmids containing proviral clones encoding WT HIV-1 89.6 using polyethylenimine (PEI). After 6 hrs, cells were rinsed with DPBS gently, and then cells were resuspended in a fresh media with or without the inhibitor (1 μM, final). At 96 hrs post-transfection, cell cultures were centrifuged (1,800 xg) and filtered through 0.45 μm filter to remove cells and any cell debris, and viruses were harvested by centrifugation at 100,000 xg for 1.5 hrs in the presence of TNE sucrose buffer (5% sucrose, final). The pellets were fixed in a buffer containing 0.1 M Na cacodylate at pH 7.4 and 2.5% Glutaraldehyde, and submitted to Emory Integrated Core Facilities for sectioning, followed by TEM. Virus pellets were dehydrated in a graduated ethanol series and embedded in Epon resin. Ultrathin sections were stained using uranyl acetate and observed under a transmission electron microscope (JEOL JEM-1400), equipped with Gatan CCD camera at the Emory Integrated Electron Microscopy Core. Total of approximately 1,000 virions each (with or without the inhibitor treatment) were captured in the images obtained for comparisons in virion morphology.

Data set [2] can be described thus: Four-week oral dose toxicology study in rats (GLP). Further details: species or system SD rats. The note with it: Sprague-Dawley, rat, in vivo, read-out: no-observed-adverse-effect level (NOAEL). As for the experimental part: STP0404 was administered orally to 10 or 15 SD rats/sex/group at dose levels of 100, 300 and 600 mg/kg/day for 4 weeks to evaluate its potential toxicity. The reversibility of any effects was also assessed following a 2-week untreated recovery period. Control animals (15 animals/sex) received the vehicle, 0.5 w/v% methylcellulose solution, in a similar manner for comparison. In addition, plasma STP0404 concentrations were determined using TK satellite animals (3 animals/sex/group) to evaluate systemic exposure of the animals to the test article. (Study no. YL18402). STP0404 was administered orally as a capsule to 4 or 6 dogs/sex/group at dose levels of 30, 60 and 90 mg/kg/day for 4 weeks to evaluate its potential toxicity. Control animals (6 animals/sex) received empty gelatin capsules in a similar manner for comparison. The reversibility of any effects was also assessed following a 2-week untreated recovery period (2 animals/sex/group for the control and 90 mg/kg/day groups). In addition, plasma STP0404 concentrations were determined using all tested animals (including control group) to evaluate systemic exposure of the animals to the test article (Study no. YL18403). The test was performed according to the Standard Operating Procedures (SOP) the Good Laboratory Practice (GLP) system of the INA Research.

Data set [3] concerns HIV-1NL4-3. Kind of data set: In vitro anti-viral assay in human PBMCs (RT activity readout). The format is cell-based. As for the experimental part: For the assay with human PBMCs, PHA stimulated cells from at least two pooled healthy were infected with HIV-1 strains in 96-well plates. Test drug dilutions, which were prepared at a 2X concentration in microtiter tubes and 100 μL of each concentration (nine total concentrations), were placed in appropriate wells using the standard format. 50 μL of a predetermined dilution of virus stock was placed in each test well (final MOI ≅ 0.1). The PBMC cultures were maintained for 7 days following infection at 37 °C, 5% CO2. After this period, cell-free supernatant samples were collected for analysis of reverse transcriptase (RT) activity. All assays were conducted in triplicates. For RT assay, a microtiter plate-based reverse transcriptase (RT) reaction was utilized (Buckheit et al., AIDS Research and Human Retroviruses 7:295–302, 1991). Tritiated thymidine triphosphate (^3H-TTP, 80 Ci/mmol, NEN) is received in 1:1 dH2O: Ethanol at 1 mCi/mL. Poly rA:oligo dT template:primer (GE Healthcare) was prepared as a stock solution by combining 150 μL poly rA (20 mg/mL) with 0.5 mL oligo dT (20 units/mL) and 5.35 mL sterile dH2O followed by aliquoting (1.0 mL) and storage at—20°C. The RT reaction buffer was prepared fresh on a daily basis and consisted of 125 μL 1.0 M EGTA, 125 μL dH2O, 125 μL 20% Triton X100, 50 μL 1.0 M Tris (pH 7.4), 50 μL 1.0 M DTT, and 40 μL 1.0 M MgCl2. The final reaction mixture was prepared by combining 1 part ^3H-TTP, 4 parts dH2O, 2.5 parts poly rA:oligo dT stock and 2.5 parts reaction buffer. Ten microliters of this reaction mixture were placed in a round bottom microtiter plate and 15 μL of virus containing supernatant is added and mixed. The plate was incubated at 37°C for 60 mins. Following incubation, the reaction volume was spotted onto DE81 filter-mats (Wallac), washed 5 times for 5 mins each in a 5% sodium phosphate buffer or 2X SSC (Life Technologies). Next they were washed 2 times for 1 min each in distilled water, 2 times for 1 min each in 70% ethanol, and then dried. Incorporated radioactivity (counts per min, CPM) was quantified using standard liquid scintillation techniques. These PBMC analysis was conducted by fee to service through Southern Research Institute (Frederick, MD, USA). The IC50 were analyzed using GraphPad Prism (Version 9) and presented as means ± S.D. of the triplicates.

Data set [4] can be described thus: In vivo pharmacokinetics in SD rats. The conditions noted are these: Sprague-Dawley, plasma, Rat. The procedure: Study design: […]). Group 1 was dosed with STP0404 at 1 mg/kg by single intravenous administration. […] The vehicle used for IV study was DMSO: PEG400: […] Blood samples were collected at 0.0833, 0.25, 0.5, 1, 2, 4, 8, 12 (only for PO groups) and 24 hrs post-dose for Groups 1 to 4. STP0404 concentrations in plasma samples were determined by LC-MS/MS. Preclinical Dog pharmacokinetics study (Study no. 400751-2015020201-DPK): A total of 6 male Beagle dogs were divided into two groups (3 animals/group). Following single STP0404 2 mg/kg oral and intravenous administration to Beagle Dogs, STP0404 concentration was determined in plasma, and pharmacokinetic parameters were calculated. […] The concentrations of STP0404 in plasma were determined by using a LC/MS/MS method.

A short description of data set [5]: Microsomal stability determination. The format is in vitro ADME, animal and human. The conditions noted are these: human, liver microsomes; all tested species; read-out: microsomal stability T1/2. The procedure:
A liver microsome (LM) stability assay was […] of incubation at 0, 10, 20, 30 and 60 min with a […] STP0404 initial concentration. All plates were shaken and centrifuged at 3200 x g for 20 mins. Then 100 μL of supernatant was taken from each well and diluted with 300 μL pure water before analyzed by LC/MS/MS. Animal and human liver microsomes were purchased from Wuxi AppTec, Xenotech or Corning and stored in a freezer (lower than -60°C) before use (Wuxi AppTec, China).

Regarding `Cc1nc2c(c(C)c(C)n2Cc2cnn(C)c2)c(-c2ccc(Cl)cc2)c1[C@H](OC(C)(C)C)C(=O)O` [STP0404], the “localization of viral RNA genomes in virus particles (TEM)” value in data set [1] is given as “viral RNA genomes outside of the capsid”. For the same molecule, the NOAEL at 4 weeks in data set [2] (female rats) stood at 600 mg/kg/day. The no-observed-adverse-effect level (NOAEL) at 4 weeks in data set [2] (male rats) was 300 mg/kg/day. The molecule further registered an IC50 in data set [3] (Human immunodeficiency virus 1, NL43, PBMC) of 0.41 ± 0.43 nM. Besides, in data set [3] (human PBMCs, NL4-3, minimal TI from IC50 and 10 μM), the “TI (TC50 / IC50)” value is recorded as >24,000. In data set [4] (iv, 5 mg/kg (i.v)), the exposure (AUC) was determined as 42.7 µM·h and the half-life was 230 min. In data set [4] (po, 10 mg/kg (p.o)), this molecule showed an AUC of 78 µM·h, a maximum concentration (Cmax) of 21.4 µM and a half-life of 274 min. The bioavailability in data set [4] (po, 10 mg/kg (p.o), read-out: Ft (oral bioavailability)) stood at 92.8%. Moreover, the half-life at 1 μL in data set [5] was > 133 min.

For the origin of these results see publication PMC8297771 (PLoS Pathogens, 2021).
